In experiment [1] the target is T1, ASIC3 (Rattus norvegicus, UniProt O35240).
T1 sequence (O35240 1-533): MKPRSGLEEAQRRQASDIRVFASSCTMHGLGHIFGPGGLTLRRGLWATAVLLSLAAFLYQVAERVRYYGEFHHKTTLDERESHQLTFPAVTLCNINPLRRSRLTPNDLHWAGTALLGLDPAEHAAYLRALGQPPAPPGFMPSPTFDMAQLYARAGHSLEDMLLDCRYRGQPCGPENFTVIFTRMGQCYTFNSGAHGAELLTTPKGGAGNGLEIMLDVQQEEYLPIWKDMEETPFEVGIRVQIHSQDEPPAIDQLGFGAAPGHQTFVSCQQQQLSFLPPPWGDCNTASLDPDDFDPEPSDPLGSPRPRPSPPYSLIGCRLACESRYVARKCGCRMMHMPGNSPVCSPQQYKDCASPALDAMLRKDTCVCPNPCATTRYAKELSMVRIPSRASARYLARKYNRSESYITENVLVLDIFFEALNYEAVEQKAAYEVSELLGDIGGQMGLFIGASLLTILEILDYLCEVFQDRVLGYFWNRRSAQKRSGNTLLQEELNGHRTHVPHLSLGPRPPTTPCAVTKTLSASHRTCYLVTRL
Put plainly: cell-based. The settings on record: CHO, read-out: whole-cell patch clamp in transfected CHO cells; potentiation of the sustained c.

The target in experiment [2] is T2, ASIC1a (Rattus norvegicus, UniProt P55926).
T2 construct: gene Asic1
T2 sequence (P55926 1-526): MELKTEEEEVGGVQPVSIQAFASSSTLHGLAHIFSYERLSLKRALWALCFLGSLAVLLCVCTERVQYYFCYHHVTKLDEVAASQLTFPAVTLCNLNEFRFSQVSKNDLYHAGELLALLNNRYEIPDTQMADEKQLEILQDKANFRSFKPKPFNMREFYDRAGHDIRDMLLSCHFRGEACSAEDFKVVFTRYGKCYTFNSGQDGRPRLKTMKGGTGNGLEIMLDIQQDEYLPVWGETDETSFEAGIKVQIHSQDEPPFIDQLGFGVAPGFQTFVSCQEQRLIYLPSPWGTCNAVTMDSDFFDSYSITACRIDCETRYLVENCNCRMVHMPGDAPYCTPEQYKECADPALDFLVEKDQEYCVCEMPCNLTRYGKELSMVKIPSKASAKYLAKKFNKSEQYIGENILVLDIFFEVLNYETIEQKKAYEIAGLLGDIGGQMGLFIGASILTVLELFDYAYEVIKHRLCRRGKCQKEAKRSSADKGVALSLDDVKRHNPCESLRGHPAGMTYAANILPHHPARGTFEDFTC
Put plainly: cell-based. The settings on record: CHO, read-out: whole-cell patch clamp in transfected CHO cells; 10 mM, voltage-dependent inhibi.

Experiment [3] has as its target T2, ASIC1a. The experiment can be described thus: whole-cell patch clamp in transfected CHO cells; […], pH […], Idrug/Icontrol = […]. It counts as cell-based. As to conditions: pH 6.5, read-out: whole-cell patch clamp in transfected CHO cells, 5 mM, pH 6.5, Idrug/Icontrol =.
Experiment [4] addresses T3, ASIC2a (Rattus norvegicus, UniProt Q62962).
T3 construct: gene Asic2
T3 sequence (Q62962 1-512): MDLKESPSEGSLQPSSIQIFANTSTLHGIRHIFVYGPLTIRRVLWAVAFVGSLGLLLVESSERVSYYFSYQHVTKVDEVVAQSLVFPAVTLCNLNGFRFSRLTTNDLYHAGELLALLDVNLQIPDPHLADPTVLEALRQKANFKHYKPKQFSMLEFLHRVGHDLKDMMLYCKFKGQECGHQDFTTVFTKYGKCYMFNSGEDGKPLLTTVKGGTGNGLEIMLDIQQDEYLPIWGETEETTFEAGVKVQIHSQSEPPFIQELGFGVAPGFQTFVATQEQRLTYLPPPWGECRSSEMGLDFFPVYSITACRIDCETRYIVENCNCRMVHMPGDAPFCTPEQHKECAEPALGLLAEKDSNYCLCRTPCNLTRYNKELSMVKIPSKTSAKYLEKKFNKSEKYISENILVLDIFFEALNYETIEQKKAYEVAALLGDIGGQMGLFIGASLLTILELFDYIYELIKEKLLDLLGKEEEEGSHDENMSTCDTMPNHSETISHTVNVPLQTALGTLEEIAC
The experiment can be described thus: whole-cell patch clamp in transfected CHO cells; […], pH […], peak Idrug/Icontrol = […]. The experiment is classed as cell-based. As to conditions: pH 5, read-out: whole-cell patch clamp in transfected CHO cells, 5 mM, pH 5.0, peak Idrug/Icontr.

The structures appear in SMILES notation.

With `CCCC[N+](CCCC)(CCCC)CCCC` [TBA, tetrabutylammonium], the activity at 1000 µM in experiment [1] stood at 112 ± 8%.

Take `CC[N+](CC)(CC)CC` [TEA, tetraethylammonium]: the activity at 10000 µM in experiment [2] turned out to be 70 ± 13%. As for `CCCCC[N+](CCCCC)(CCCCC)CCCCC` [TPtA, tetrapentylammonium], in experiment [3], the remaining activity at 5000 µM turned out to be 41 ± 6%. The activity at 5000 µM in experiment [4] worked out at 71 ± 18%.

These data come from publication PMC10669046, “Probing the Proton-Gated ASIC Channels Using Tetraalkylammonium Ions” (Biomolecules, 2023).
